Measurements from ChEMBL document CHEMBL2434900, “Synthesis of novel benzo[4,5]thiazolo[1,2-a]pyrimidine-3-carboxylate derivatives and biological evaluation as potential anticancer agents” (Eur J Med Chem, 2013).

What was measured:
Assay type in all cases: functional, cell-based
[1] = tested on: HeLa; test: Cytotoxicity against human HeLa cells by MTT assay
[2] = tested on: MCF7; test: Cytotoxicity against human MCF7 cells by MTT assay
[3] = tested on: A549; test: Cytotoxicity against human A549 cells by MTT assay
[4] = tested on: MDA-MB-231; test: Cytotoxicity against human MDA-MB-231 cells by MTT assay

Row | Compound | IC50 [1] [µM] | IC50 [2] [µM] | IC50 [3] [µM] | IC50 [4] [µM]
1 | CC1=C(C(=O)NCCC(=O)N2CCN(c3ccc([N+](=O)[O-])cc3)CC2)C(c2ccccc2)N2C(=N1)Sc1ccccc12 (centres undefined) | 25.7 | 13.8 | 11.2 | 
2 | CC1=C(C(=O)N2CCCCC2)C(c2ccccc2)N2C(=N1)Sc1ccccc12 (centres undefined) |  | 11.7 |  | 5.01
3 | CC1=C(C(=O)N2CCN(C)CC2)C(c2ccccc2)N2C(=N1)Sc1ccccc12 (centres undefined) |  | 0.58 |  | 1.58
4 | CC1=C(C(=O)N2CCOCC2)C(c2ccccc2)N2C(=N1)Sc1ccccc12 (centres undefined) |  | 10.1 |  | 11.1
5 | CC1=C(C(=O)N2CCN(c3ccccc3)CC2)C(c2ccccc2)N2C(=N1)Sc1ccccc12 (centres undefined) |  | 77.6 |  | 31.6
6 | CC1=C(C(=O)N2CCN(c3ccc([N+](=O)[O-])cc3)CC2)C(c2ccccc2)N2C(=N1)Sc1ccccc12 (centres undefined) |  | 29 |  | 47.2
7 | CC1=C(C(=O)NCCC(=O)N2CCCCC2)C(c2ccccc2)N2C(=N1)Sc1ccccc12 (centres undefined) | 11.4 | 16.8 | 18.1 | 21.7
8 | COc1cccc2c1C(=O)c1c(O)c3c(c(O)c1C2=O)C[C@@](O)(C(=O)CO)C[C@@H]3O[C@H]1C[C@H](N)[C@H](O)[C@H](C)O1 [DOXORUBICIN] |  | 1.05 |  | 0.501
